# Where two headings read alike, the source gives them in different places.
# Key:
# [1] = Plasma pharmacokinetics of 5-FU in rats with or without MMP-8 inhibitor before whole pelvic irradiation 2 Gy; format: in vivo, Sprague-Dawley rats; conditions: for AUC / Cmax / MRT / clearance / half-life / Vd: Sprague-Dawley, rat, iv, 100 mg/kg, 5-FU 100 mg/kg i.v.; for Vd: read-out: Vss
# Method: (§1) Twenty hours after RT, the rats were administered 100 mg/kg of 5-FU in 2 mL of normal saline by intravenous infusion into the femoral vein over a 2-min period. A 150-µL blood sample was withdrawn from the jugular vein with a fraction collector according to a programmed schedule at 5, 15, 30, 45, and 60 min, and 1.5, 2, 2.5, and 3 h following drug administration. The blood samples were immediately centrifuged at 3300×g for 10 min. The resulting plasma (50 µL) was added to 1 mL of ethyl acetate in a clean tube, vortexed for 5 min, and centrifuged at 5900×g for 10 min. After centrifugation, the upper organic layer containing the ethyl acetate was transferred to a new tube and evaporated to dryness under flowing nitrogen. The dried residue was reconstituted with 50 µL of Milli-Q water (Millipore). A 20-µL aliquot of the solution was injected to the high performance liquid chromatography-ultraviolet (HPLC-UV) detection system.
# (§2) Chromatographic analysis was performed on a Model LC-20AT HPLC system (Shimadzu, Tokyo, Japan) equipped with a Model SPD-20A wavelength UV detector, SIL-20AC autosampler, and an LC Solution data processing system. A LiChroCART RP-18e column (Purospher, 250 mm, 5 µm, Merck, Darmstadt, Germany) with a LiChroCART 4-4 guard column was used for separation. The mobile phase comprised […] potassium phosphate-methanol (99∶1, v/v, pH 4.5 adjusted by 85% phosphoric acid), and the flow rate of the mobile phase was 1 ml/min. The detection wavelength was set at 266 nm. Under these conditions, the retention time of 5-FU was 5.4 min. […] Good linearity was achieved over the range of 0.01–5 µg/ml, with all coefficients of correlation greater than 0.998. All samples were freshly prepared, including the standard solutions, from the same stock solution (5 mg/mL). The 0.01-µg/mL limit of quantification was defined the lowest concentration on the calibration curve that could be measured routinely with acceptable bias and relative SD. The overall mean precision, defined by the relative SD, ranged from 0.2% to 11.0%. Analytical accuracy was expressed as the percentage difference of the mean observed values compared to known concentrations varying from −10.0% to 14.0%. The recovery results for concentrations of 0.1–10 µg/mL were 92.0%–94.0%
# MMP-8 inhibitor I (Calbiochem, La Jolla, CA) was administered to the rats to examine whether or not RT modulation of 5-FU pharmacokinetic parameters could be blocked. Briefly, MMP-8 inhibitor I was dissolved in PEG400/ethanol [4∶1 (v/v)] solution, yielding a final concentrations of 5 mg/mL. Two hours before irradiation, 10 mg/kg of MMP-8 inhibitor I was infused into the rat's tail vein over a 2-min period. After that, the rats were anesthetized with urethane 1 g/ml and α-chloralose 0.1 g/ml (1 ml/ kg by intraperitoneal injection), and were immobilized on a board to undergo computed tomography for simulation of the whole pelvic field and received irradiation, as described previously. The experimental animals were randomized to control without PEG400/ethanol [4∶1 (v/v)] solution (0 Gy), control with solvent (0 Gy), whole pelvic irradiation (2 Gy) with solvent and whole pelvic irradiation (2 Gy) with MMP-8 inhibitor and solvent groups, respectively. After RT sham RT 20 hrs, all rats received 5-FU (100 mg/kg) injections and the pharmacokinetic parameters of 5-FU were analyzed. Each group's data was collected from four rats.
# (§3) Pharmacokinetic parameters including the AUC for concentration versus time, terminal elimination phase t1/2, Cmax, MRT, total plasma clearance and Vss were calculated using the pharmacokinetics calculation software WinNonlin Standard Edition, Version 1.1 (Scientific Consulting, Apex, NC, USA) using a compartmental method.
# [2] = system: HepG2; experiment: Viability/toxicity of 5-FU-treated HepG2 with or without recombinant MMP-8; format: cell-based, Human; conditions: 5-FU-treated with or without recombinant MMP-8, data not shown
# [3] = system: HepG2; experiment: Intracellular 5-FU levels with or without recombinant MMP-8 by HPLC; format: cell-based, Human; conditions: 10 µg/mL recombinant MMP-8 plus 50 µM 5-FU vs 50 µM 5-FU alone, up to 60 min
# Method: as §2, with “92.0%–94.0% […]” for “92.0%–94.0%”
# [4] = Bile pharmacokinetics of 5-FU in rats after whole pelvic irradiation; format: in vivo, Sprague-Dawley rats; conditions: for AUC / Cmax / MRT / clearance / half-life / Vd: Sprague-Dawley, rat, iv, 100 mg/kg, 5-FU 100 mg/kg i.v.; for Vd: read-out: Vss
# [5] = system: alanine aminotransferase (ALT); experiment: Evaluation of hepatic function (plasma ALT); format: in vivo; conditions: rats
# Method: The plasma levels of alanine aminotransferase (ALT) were measured to check the influence of different modalities for hepatic function by a standard colorimetric method using a Synchron LX20 spectrophotometer (Beckman Coulter) and manufacturer-supplied reagents.
# [6] = Plasma pharmacokinetics of 5-FU in rats after whole pelvic irradiation; format: in vivo, Sprague-Dawley rats; conditions: for AUC / Cmax / MRT / clearance / half-life / Vd: Sprague-Dawley, rat, iv, 100 mg/kg, 5-FU 100 mg/kg i.v.; for Vd: read-out: Vss
# Method: The rats were anesthetized with urethane 1 g/ml and α-chloralose 0.1 g/ml (1 ml/kg by intraperitoneal injection), and were immobilized on a board when undergoing computed tomography for simulation of the whole pelvic field. The cranial margin was set at the top of the bilateral iliac crests for the whole pelvic field (Fig. 7). Conventional radiotherapy was used to deliver the radiation dose via the anterior-posterior (AP) and PA portals. The experimental animals were randomized to the control, 2-Gy alone, 5-FU alone, 0.5-Gy followed by 5-FU, and 2-Gy followed by 5-FU groups. Each group's data was collected from six rats.
# as §1, §2, §3
# [7] = cited from earlier work
# [8] = parameters: method as in PMID 9188061; conditions: rats, mean ± SD, cited from earlier work
# [9] = MMP-8 inhibitor 10 mg/kg 2 h before 2 Gy
# [10] = plasma, controls without solvent
# [11] = plasma, whole pelvic irradiation 2 Gy with solvent
# [12] = plasma, plasma, whole pelvic irradiation 2 Gy with solvent and MMP-8 inhibitor (10 mg/kg, 2 h before irradiation)
# [13] = whole pelvic irradiation 0.5 Gy
molecule,measurement,setting,value
COc1ccc(S(=O)(=O)N2Cc3ccccc3C[C@@H]2C(=O)NO)cc1 [MMP-8 inhibitor],effect on the decreased MRT of 5-FU caused by irradiation,[1]; [9],completely reversed
same,effect on the increased clearance value of 5-FU caused by irradiation,[1]; [9],completely reversed
same,effect of pretreatment on the decline in AUC of 5-FU caused by pelvic irradiation,"[1]; MMP-8 inhibitor 10 mg/kg 2 h before 2 Gy, P<0.05",significantly attenuated
same,effect of MMP-8 inhibitor alone on the AUC of 5-FU,"[1]; plasma, in comparison with the controls",Neither the MMP-8 inhibitor alone nor its vehicle had a significant effect
"recombinant MMP-8: recombinant matrix metalloproteinase-8, 10 µg/mL added to HepG2 cells",toxicity to HepG2,[2],no significant toxicity
same,effect on the AUC of intracellular 5-FU,[3],no significant effect
"O=c1[nH]cc(F)c(=O)[nH]1 [5-FU, 5-fluorouracil]",AUC,"[1]; plasma, controls with solvent",71400 ng·h/mL
same,Cmax,"[1]; plasma, controls with solvent",146 ± 35 µg/mL
same,MRT,"[1]; plasma, controls with solvent",36 min
same,clearance,"[1]; plasma, controls with solvent",23.4 ± 0.8 mL/min/kg
same,half-life,"[1]; plasma, controls with solvent",27.8 ± 3 min
same,AUC,[1]; [10],71400 ng·h/mL
same,Cmax,[1]; [10],151 ± 17 µg/mL
same,MRT,[1]; [10],37 min
same,clearance,[1]; [10],23.4 ± 1.1 mL/min/kg
same,half-life,[1]; [10],33.3 ± 16.1 min
same,AUC,[1]; [11],55100 ng·h/mL
same,Cmax,[1]; [11],132 ± 51 µg/mL
same,MRT,[1]; [11],26 min
same,clearance,[1]; [11],30.3 ± 0.3 mL/min/kg
same,half-life,[1]; [11],31 ± 8.8 min
same,Vd,"[1]; plasma, plasma, controls with solvent",0.836 ± 0.097 L/kg
same,Vd,"[1]; plasma, plasma, controls without solvent",0.859 ± 0.022 L/kg
same,AUC,[1]; [12],66000 ng·h/mL
same,Cmax,[1]; [12],122 ± 29 µg/mL
same,MRT,[1]; [12],36 min
same,clearance,[1]; [12],25.4 ± 2.8 mL/min/kg
same,half-life,[1]; [12],32.3 ± 9.9 min
same,Vd,[1]; [12],0.911 ± 0.127 L/kg
same,Vd,"[1]; plasma, plasma, whole pelvic irradiation 2 Gy with solvent",0.784 ± 0.11 L/kg
same,increase of the AUC of 5-FU in bile by pelvic irradiation,[4]; 0.5 Gy vs non-irradiated controls,25.1%
same,increase of the AUC of 5-FU in bile by pelvic irradiation,[4]; 2 Gy vs non-irradiated controls,30.6%
same,AUC,[4]; controls 0 Gy,19700 ng·h/mL
same,Cmax,[4]; controls 0 Gy,129 ± 22 µg/mL
same,MRT,[4]; controls 0 Gy,8.9 min
same,clearance,[4]; controls 0 Gy,84.8 ± 3.6 mL/min/kg
same,half-life,[4]; controls 0 Gy,9.2 ± 0.4 min
same,Vd,[4]; controls 0 Gy,0.754 ± 0.102 L/kg
same,AUC,[4]; [13],24600 ng·h/mL
same,Cmax,[4]; [13],120 ± 14 µg/mL
same,MRT,[4]; [13],11.1 min
same,clearance,[4]; [13],67.9 ± 3.6 mL/min/kg
same,half-life,[4]; [13],10.3 ± 0.5 min
same,Vd,[4]; [13],0.753 ± 0.025 L/kg
same,AUC,[4]; whole pelvic irradiation 2 Gy,25700 ng·h/mL
same,Cmax,[4]; whole pelvic irradiation 2 Gy,93 ± 6 µg/mL
same,MRT,[4]; whole pelvic irradiation 2 Gy,13.9 min
same,clearance,[4]; whole pelvic irradiation 2 Gy,65.1 ± 4.3 mL/min/kg
same,half-life,[4]; whole pelvic irradiation 2 Gy,12.9 ± 2.8 min
same,Vd,[4]; whole pelvic irradiation 2 Gy,0.903 ± 0.055 L/kg
same,alanine aminotransferase (ALT) levels vs control group,[5]; 0.5 Gy followed by 5-FU,no significant difference
same,alanine aminotransferase (ALT) levels vs control group,[5]; 2 Gy followed by 5-FU,no significant difference
same,alanine aminotransferase (ALT) levels vs control group,[5]; 5-FU-treated only,no significant difference
same,reduction of the AUC of 5-FU by pelvic irradiation,"[6]; 0.5 Gy vs non-irradiated controls, P = 0.019",17.6%
same,reduction of the AUC of 5-FU by pelvic irradiation,"[6]; 2 Gy vs non-irradiated controls, P = 0.008",21.5%
same,AUC,[6]; controls 0 Gy,78800 ng·h/mL
same,Cmax,[6]; controls 0 Gy,164 ± 36 µg/mL
same,MRT,[6]; controls 0 Gy,36.5 min
same,clearance,[6]; controls 0 Gy,21.3 ± 1.9 mL/min/kg
same,half-life,[6]; controls 0 Gy,34.7 ± 9.6 min
same,Vd,[6]; controls 0 Gy,0.778 ± 0.088 L/kg
same,AUC,[6]; [13],64900 ng·h/mL
same,Cmax,[6]; [13],167 ± 23 µg/mL
same,MRT,[6]; [13],30.9 min
same,clearance,[6]; [13],25.8 ± 2 mL/min/kg
same,half-life,[6]; [13],24.7 ± 3.5 min
same,Vd,[6]; [13],0.775 ± 0.116 L/kg
same,AUC,[6]; whole pelvic irradiation 2 Gy,61900 ng·h/mL
same,Cmax,[6]; whole pelvic irradiation 2 Gy,179 ± 19 µg/mL
same,MRT,[6]; whole pelvic irradiation 2 Gy,25 min
same,clearance,[6]; whole pelvic irradiation 2 Gy,27.3 ± 3.6 mL/min/kg
same,half-life,[6]; whole pelvic irradiation 2 Gy,29.9 ± 7.1 min
same,Vd,[6]; whole pelvic irradiation 2 Gy,0.67 ± 0.06 L/kg
same,fraction catabolyzed by the liver via the dihydropyrimidine dehydrogenase (DPD) pathway,[7],About 80%
same,dose-normalized area under the curve (AUC),[8]; 10 mg/kg,0.43 ± 0.11 mg·h/L/mg
same,dose-normalized area under the curve (AUC),[8]; 50 mg/kg,0.50 ± 0.16 mg·h/L/mg
same,dose-normalized area under the curve (AUC),[8]; 100 mg/kg,1.14 ± 0.55 mg·h/L/mg

# Reference: publication PMC3111455, “Matrix Metalloproteinase-8 Mediates the Unfavorable Systemic Impact of Local Irradiation on Pharmacokinetics of Anti-Cancer Drug 5-Fluorouracil” (PLoS ONE, 2011)
